Counter-ions that a name gives are not always drawn.
| Structure (SMILES) | melting point |
| --- | --- |
| CN(C)c1ccc(CNC(=O)c2cn(Cc3cccc(C(=N)N)c3)c3ccccc23)cc1.O=C(O)C(F)(F)F.O=C(O)C(F)(F)F | 92 to 96 °C |
| C[N+](C)(C)c1ccc(CNC(=O)c2cn(Cc3cccc(C(=N)N)c3)c3ccccc23)cc1.O=C(O)C(F)(F)F.O=C([O-])C(F)(F)F | 177 °C (dec.) |
| CC(=O)O.C[C@@H](NC(=O)c1cc2cc(OCc3ccccc3)ccc2n1Cc1cccc(C(=N)N)c1)c1ccccc1 | 72 °C (dec.) |
| CC(=O)O.N=C(N)c1cccc(Cn2c(C(=O)NCc3ccccc3)cc3ccccc32)c1 | 266 to 268 °C (dec.) |
| COc1cccc2c1cc(C(=O)NCCc1ccc(O)cc1)n2Cc1cccc(C(=N)N)c1.O=C(O)C(F)(F)F | 140 to 142 °C |
| N=C(N)c1cccc(COC(=O)c2cc3ccccc3n2Cc2cccc(C(=N)N)c2)c1.O=C(O)C(F)(F)F.O=C(O)C(F)(F)F | 258 °C |
| N=C(N)c1cccc(Cn2c(C(=O)NCc3ccc(Cl)cc3)cc3ccccc32)c1.O=C(O)C(F)(F)F | 230 °C (dec.) |
| Cc1cccc2c1cc(C(=O)NCc1ccc([N+](C)(C)Cc3ccccc3)cc1)n2Cc1cccc(C(=N)N)c1.O=C(O)C(F)(F)F.O=C([O-])C(F)(F)F | 113 °C (dec.) |
| CC[N+](C)(C)c1ccc(CNC(=O)c2cc3cc(F)ccc3n2Cc2cccc(C(=N)N)c2)cc1.O=C(O)C(F)(F)F.O=C([O-])C(F)(F)F | 73 to 75 °C (dec.) |
| CN(C)c1ccc(CNC(=O)c2cc3cc(F)ccc3n2Cc2cccc(C(=N)N)c2)cc1.O=C(O)C(F)(F)F.O=C(O)C(F)(F)F | 90 °C (dec.) |
| CC(=O)O.CC(=O)[O-].C[N+](C)(C)c1ccc(CNC(=O)c2cc3cc(F)ccc3n2Cc2cccc(C(=N)N)c2)cc1 | 172 °C (dec.) |
| C[N+](C)(C)c1ccc(CNC(=O)c2cc3cc(F)ccc3n2Cc2cccc(C(=N)N)c2)cc1.O=C(O)C(F)(F)F.O=C([O-])C(F)(F)F | 120 to 124 °C |
| Cc1cccc2c1cc(C(=O)NCc1ccc(N(C)C)cc1)n2Cc1cccc(C(=N)N)c1.O=C(O)C(F)(F)F.O=C(O)C(F)(F)F | 106 °C (dec.) |
| C[N+](C)(C)c1ccc(CNC(=O)c2cc3cc([N+](=O)[O-])ccc3n2Cc2cccc(C(=N)N)c2)cc1.O=C(O)C(F)(F)F.O=C([O-])C(F)(F)F | 120 °C (dec.) |
| C[N+](C)(C)c1ccc(CNC(=O)c2cc3cc(N)ccc3n2Cc2cccc(C(=N)N)c2)cc1.O=C(O)C(F)(F)F.O=C(O)C(F)(F)F.O=C([O-])C(F)(F)F | 114 °C (dec.) |
| CC(=O)O.C[N+](C)(C)c1ccc(CNC(=O)c2cc3cc(S(C)(=O)=O)ccc3n2Cc2cccc(C(=N)N)c2)cc1.O=C([O-])C(F)(F)F | 70 °C (dec.) |
| CC(=O)O.CC(=O)[O-].COc1ccc2c(c1)cc(C(=O)NCc1ccc([N+](C)(C)C)cc1)n2Cc1cccc(C(=N)N)c1 | 94 °C (dec.) |
| COc1cccc2c1cc(C(=O)NCCc1cc[n+](C)cc1)n2Cc1cccc(C(=N)N)c1.O=C(O)C(F)(F)F.O=C([O-])C(F)(F)F | 164 °C (dec.) |
| CC(=O)O.CCOC(=O)c1cc2c(C)cccc2n1Cc1cccc(C(=N)N)c1 | 187 °C (dec.) |
| Cl.N=C(N)c1ccc(Cn2c(C(=O)NCc3ccccc3)cc3ccccc32)cc1 | 266 to 268 °C (dec.) |
| N=C(N)c1cccc(Cn2c(C(N)=O)cc3ccccc32)c1.O=C(O)C(F)(F)F | 278 °C (dec.) |
| N=C(N)c1ccc(Cn2c(C(=O)NCc3ccc(Cl)cc3)cc3ccccc32)cc1.O=C(O)C(F)(F)F | 268 °C (dec.) |

| Structure (SMILES) | melting point |
| --- | --- |
| CC(=O)O.CC(=O)[O-].C[N+](C)(C)c1ccc(CNC(=O)c2cc3cc(F)ccc3n2Cc2cccc(C3=NCCN3)c2)cc1 | 51 °C (dec.) |
| COc1cccc2c1cc(C(=O)NCCc1ccncc1)n2Cc1cccc(/C(N)=N/O)c1.Cl.Cl | 215 to 217 °C |
| C[N+](C)(C)c1ccc(CNC(=O)c2cc3cc(Cl)ccc3n2Cc2cccc(C(=N)N)c2)cc1.O=C(O)C(F)(F)F.O=C([O-])C(F)(F)F | 112 °C (dec.) |
| C[N+](C)(C)c1ccc(CNC(=O)c2cc3cc(O)ccc3n2Cc2cccc(C(=N)N)c2)cc1.O=C(O)C(F)(F)F.O=C([O-])C(F)(F)F | 78 °C (dec.) |
| C[N+](C)(Cc1ccccc1)c1ccc(CNC(=O)c2cc3cc(F)ccc3n2Cc2cccc(C(=N)N)c2)cc1.Cl.[Cl-] | 136 °C |
| C=CC[N+](C)(C)c1ccc(CNC(=O)c2cc3cc(F)ccc3n2Cc2cccc(C(=N)N)c2)cc1.CC(=O)O.[Cl-] | 133 °C (dec.) |
| C#CC[N+](C)(C)c1ccc(CNC(=O)c2cc3cc(F)ccc3n2Cc2cccc(C(=N)N)c2)cc1.CC(=O)O.CC(=O)[O-] | 109 °C (dec.) |
| CC(=O)O.CC(=O)O.Cc1cccc2c1cc(C(=O)OCc1cccc(C(=N)N)c1)n2Cc1cccc(C(=N)N)c1 | 53 °C (dec.) |
| CC(=O)O.CC(=O)[O-].Cc1cccc2c1cc(C(=O)NCc1ccc([N+](C)(C)C)cc1)n2Cc1cccc(C(=N)N)c1 | 89 °C (dec.) |
| COc1cccc2c1cc(C(=O)NCc1ccc(O)cc1)n2Cc1cccc(C(=N)N)c1.Cl | 202 °C (dec.) |
| CC(=O)O.CC(=O)O.N=C(N)c1cccc(COC(=O)c2cc3cc(OCc4ccccc4)ccc3n2Cc2cccc(C(=N)N)c2)c1 | 147 °C (dec.) |
| N=C(N)c1cccc(CNC(=O)c2cc3cc(O)ccc3n2Cc2cccc(C(=N)N)c2)c1.O=C(O)C(F)(F)F.O=C(O)C(F)(F)F | 125 °C (dec.) |
| CC(=O)O.CC(=O)[O-].C[N+](C)(C)c1ccc(CNC(=O)c2cc3c(Br)cccc3n2Cc2cccc(C(=N)N)c2)cc1 | 145 °C (dec.) |
| CC(=O)O.CC(=O)[O-].C[N+](C)(C)c1ccc(CNC(=O)c2cc3cc(Br)ccc3n2Cc2cccc(C(=N)N)c2)cc1 | 86 °C (dec.) |
| CN(C)c1ccc(CNC(=O)c2cc3ccccc3n2Cc2cccnc2)cc1 | 108 to 110 °C |
| C[n+]1ccc(CNC(=O)c2cc3cc(N)ccc3n2Cc2cccc(C(=N)N)c2)cc1.O=C(O)C(F)(F)F.O=C(O)C(F)(F)F.O=C([O-])C(F)(F)F | 115 °C |
| N=C(N)c1cccc(Cn2c(C(=O)NCCc3ccc(Cl)cc3Cl)cc3c(O)cccc32)c1.O=C(O)C(F)(F)F | 144 °C |
| N=C(N)c1cccc(CNC(=O)Cc2cn(Cc3cccc(C(=N)N)c3)c3ccccc23)c1.O=C(O)C(F)(F)F.O=C(O)C(F)(F)F | 196 °C (dec.) |
| N=C(N)c1cccc(CNC(=O)c2cc3cc(OCc4ccccc4)ccc3n2Cc2cccc(C(=N)N)c2)c1 (as salt: hydroiodid) [Example 59, 1-(3-Amidino-benzyl)-5-benzyloxy-1H-indole-2-carboxylic acid 3-amidino-benzylamide dihydroiodide] | 138 °C (dec.) |
| C[N+](C)(C)c1ccc(CNC(=O)c2c(Cl)c3ccccc3n2Cc2cccc(C(=N)N)c2)cc1 (as salt: trifluoroacetic acid salt) [Example 106] | 57 °C |
| Cc1cc(CNC(=O)c2cc3c(O)cccc3n2Cc2cccc(C(=N)N)c2)cc(C(F)(F)F)c1 (as salt: trifluoroacetic acid salt) [Example 112] | 126 °C |
| N=C(N)c1cccc(CNC(=O)c2c(Cl)c3ccccc3n2Cc2cccc(C(=N)N)c2)c1 (as salt: trifluoroacetic acid salt) [Example 115] | 227 °C |
